Results taken from US20260207623A1, “USE OF ESTETROL IN HEPATICALLY IMPAIRED PATIENTS” (ESTETRA SRL, priority 2022, published 2026).

System: female subjects with normal hepatic function, mild, moderate or severe hepatic impairment
Assay: Safety and tolerability (TEAEs, clinical laboratory, vital signs, physical examination) after a single oral dose of 20 mg E4 monohydrate in the hepatic impairment study
Type: in vivo, human
Details: single oral 20 mg
Experimental: This was a Phase 1, multi-centre, open-label, PK, and safety study of a single oral dose of 20 mg E4 monohydrate in female subjects with normal hepatic function (Group 1), mild hepatic impairment (Group 2), moderate hepatic impairment (Group 3), and severe hepatic impairment (Group 4), as defined using the Child-Pugh classification at Screening.
Safety and tolerability assessments consisted of treatment-emergent AEs (TEAEs), clinical laboratory, vital signs, physical examination, and gynecological examination. Assessments were performed in accordance with Table 2 and Table 3 in Section 2.5.1.
AEs/TEAEs were recorded after signing of the ICF until completion of the follow up visit. Any clinically significant observations in results of clinical laboratory, vital signs, or physical examinations were recorded as AEs.
A TEAE is defined as any event not present prior to administration of the study drug or any event already present that worsens in either severity or frequency following exposure to the study drug.
The below listed tests were to be performed by the local laboratories at time points indicated in the Schedule of Assessments (Table 2).
Systolic and diastolic blood pressure and pulse were recorded after the subject had been resting for at least 5 minutes in the supine position at time points indicated in the Schedule of Assessments (Table 2). These assessments were made using an automated device. Body temperature and respiratory rate were measured subsequently.
A complete physical examination consisting of a review of all body systems was performed at time points indicated in the Schedule of Assessments (Table 2). A symptom-directed physical examination could be conducted at any time per Investigator's discretion.
2.6.2.2 Evaluation of Safety and Tolerability Safety and tolerability were assessed through TEAEs, clinical laboratory, vital signs, and physical examination findings, and any other parameter that was relevant for safety assessment.
A listing of all individual AEs is provided. Summary tables of TEAEs are presented by system organ class (SOC) based on the MedDRA terminology list (preferred terms): a table containing the number of subjects experiencing AEs by hepatic function, a table containing the number of subjects experiencing SAEs by hepatic function (if applicable), a table by hepatic function and relationship, and a table by hepatic function and severity.

[1] = Mild hepatic impairment (N = 8)
[2] = Moderate hepatic impairment (N = 8)
[3] = Normal hepatic function (N = 8)

`C[C@]12CC[C@@H]3c4ccc(O)cc4CC[C@H]3[C@@H]1[C@@H](O)[C@@H](O)[C@@H]2O` [E4 monohydrate, estetrol monohydrate] was tested, and the “TEAE by severity: Back pain, severity Mild” value [1] was 0 (0.0) n (%), the “TEAE by severity: Back pain, severity Moderate” value [1] was 0 (0.0) n (%) and the “TEAE by severity: Diarrhea, severity Mild” value [1] was 0 (0.0) n (%). For the same compound, the “TEAE by severity: Diarrhea, severity Moderate” value [1] was 0 (0.0) n (%), the “TEAE by severity: Gastrointestinal disorders, severity Mild” value [1] was 0 (0.0) n (%) and the “TEAE by severity: Gastrointestinal disorders, severity Moderate” value [1] was 0 (0.0) n (%). For the same compound, the “TEAE by severity: General disorders and administration site conditions, severity Mild” value [1] was 0 (0.0) n (%), the “TEAE by severity: Haemarthrosis, severity Mild” value (“TEAE by severity: Haemarthrosis” for short) [1] was 1 (12.5) n (%) and the “TEAE by severity: Headache, severity Mild” value [1] was 0 (0.0) n (%). For the same compound, the “TEAE by severity: Headache, severity Moderate” value [1] was 0 (0.0) n (%), the “TEAE by severity: Hypertension, severity Mild” value (from here on “TEAE by severity: Hypertension”) [1] was 2 (25.0) n (%) and the “TEAE by severity: Musculoskeletal and connective tissue disorders, severity Mild” value [1] was 1 (12.5) n (%). The “TEAE by severity: Musculoskeletal and connective tissue disorders, severity Moderate” value [1] was 0 (0.0) n (%), the “TEAE by severity: Nervous system disorders, severity Mild” value [1] was 0 (0.0) n (%) and the “TEAE by severity: Nervous system disorders, severity Moderate” value [1] was 0 (0.0) n (%). The “TEAE by severity: Pain in extremity, severity Mild” value (“TEAE by severity: Pain in extremity” for short) [1] was 0 (0.0) n (%), the “TEAE by severity: Pancreatitis, severity Moderate” value (from here on “TEAE by severity: Pancreatitis”) [1] was 0 (0.0) n (%) and the “TEAE by severity: Pyrexia, severity Mild” value [1] was 0 (0.0) n (%). For the same compound, the “TEAE by severity: Renal and urinary disorders, severity Mild” value [1] was 0 (0.0) n (%), the “TEAE by severity: Renal impairment, severity Mild” value (“TEAE by severity: Renal impairment” for short) [1] was 0 (0.0) n (%) and the “TEAE by severity: Vascular disorders, severity Mild” value [1] was 2 (25.0) n (%). The “TEAE: Back pain” value [1] was 0 (0.0) n (%), the “TEAE: Diarrhea” value [1] was 0 (0.0) n (%) and the “TEAE: Gastrointestinal disorders” value [1] was 0 (0.0) n (%). For the same compound, the “TEAE: General disorders and administration site conditions” value [1] was 0 (0.0) n (%), the “TEAE: Haemarthrosis” value [1] was 1 (12.5) n (%) and the “TEAE: Headache” value [1] was 0 (0.0) n (%). The “TEAE: Hypertension” value [1] was 2 (25.0) n (%), the “TEAE: Musculoskeletal and connective tissue disorders” value [1] was 1 (12.5) n (%) and the “TEAE: Nervous system disorders” value [1] was 0 (0.0) n (%). The “TEAE: Pain in extremity” value [1] was 0 (0.0) n (%), the “TEAE: Pancreatitis” value [1] was 0 (0.0) n (%) and the “TEAE: Pyrexia” value [1] was 0 (0.0) n (%). The “TEAE: Renal and urinary disorders” value [1] was 0 (0.0) n (%), the “TEAE: Renal impairment” value [1] was 0 (0.0) n (%) and the “TEAE: Total Subjects with at Least One TEAE” value [1] was 2 (25.0) n (%). For the same compound, the “TEAE: Vascular disorders” value [1] was 2 (25.0) n (%), the “TEAE by severity: Back pain, severity Mild” value [2] was 0 (0.0) n (%) and the “TEAE by severity: Back pain, severity Moderate” value [2] was 0 (0.0) n (%). For the same compound, the “TEAE by severity: Diarrhea, severity Mild” value [2] was 2 (25.0) n (%), the “TEAE by severity: Diarrhea, severity Moderate” value [2] was 0 (0.0) n (%) and the “TEAE by severity: Gastrointestinal disorders, severity Mild” value [2] was 2 (25.0) n (%). The “TEAE by severity: Gastrointestinal disorders, severity Moderate” value [2] was 0 (0.0) n (%), the “TEAE by severity: General disorders and administration site conditions, severity Mild” value [2] was 1 (12.5) n (%) and the “TEAE by severity: Haemarthrosis” value [2] was 0 (0.0) n (%). For the same compound, the “TEAE by severity: Headache, severity Mild” value [2] was 1 (12.5) n (%), the “TEAE by severity: Headache, severity Moderate” value [2] was 1 (12.5) n (%) and the “TEAE by severity: Hypertension” value [2] was 0 (0.0) n (%). The “TEAE by severity: Musculoskeletal and connective tissue disorders, severity Mild” value [2] was 1 (12.5) n (%), the “TEAE by severity: Musculoskeletal and connective tissue disorders, severity Moderate” value [2] was 0 (0.0) n (%) and the “TEAE by severity: Nervous system disorders, severity Mild” value [2] was 1 (12.5) n (%). For the same compound, the “TEAE by severity: Nervous system disorders, severity Moderate” value [2] was 1 (12.5) n (%), the “TEAE by severity: Pain in extremity” value [2] was 1 (12.5) n (%) and the “TEAE by severity: Pancreatitis” value [2] was 0 (0.0) n (%). For the same compound, the “TEAE by severity: Pyrexia, severity Mild” value [2] was 1 (12.5) n (%), the “TEAE by severity: Renal and urinary disorders, severity Mild” value [2] was 0 (0.0) n (%) and the “TEAE by severity: Renal impairment” value [2] was 0 (0.0) n (%). For the same compound, the “TEAE by severity: Vascular disorders, severity Mild” value [2] was 0 (0.0) n (%), the “TEAE: Back pain” value [2] was 0 (0.0) n (%) and the “TEAE: Diarrhea” value [2] was 2 (25.0) n (%). The “TEAE: Gastrointestinal disorders” value [2] was 2 (25.0) n (%), the “TEAE: General disorders and administration site conditions” value [2] was 1 (12.5) n (%) and the “TEAE: Haemarthrosis” value [2] was 0 (0.0) n (%). The “TEAE: Headache” value [2] was 2 (25.0) n (%), the “TEAE: Hypertension” value [2] was 0 (0.0) n (%) and the “TEAE: Musculoskeletal and connective tissue disorders” value [2] was 1 (12.5) n (%). The “TEAE: Nervous system disorders” value [2] was 2 (25.0) n (%), the “TEAE: Pain in extremity” value [2] was 1 (12.5) n (%) and the “TEAE: Pancreatitis” value [2] was 0 (0.0) n (%). The “TEAE: Pyrexia” value [2] was 1 (12.5) n (%), the “TEAE: Renal and urinary disorders” value [2] was 0 (0.0) n (%) and the “TEAE: Renal impairment” value [2] was 0 (0.0) n (%). For the same compound, the “TEAE: Total Subjects with at Least One TEAE” value [2] was 4 (50.0) n (%), the “TEAE: Vascular disorders” value [2] was 0 (0.0) n (%) and the “TEAE by severity: Back pain, severity Mild” value [3] was 0 (0.0) n (%). For the same compound, the “TEAE by severity: Back pain, severity Moderate” value [3] was 1 (12.5) n (%), the “TEAE by severity: Diarrhea, severity Mild” value [3] was 0 (0.0) n (%) and the “TEAE by severity: Diarrhea, severity Moderate” value [3] was 1 (12.5) n (%). For the same compound, the “TEAE by severity: Gastrointestinal disorders, severity Mild” value [3] was 0 (0.0) n (%), the “TEAE by severity: Gastrointestinal disorders, severity Moderate” value [3] was 2 (25.0) n (%) and the “TEAE by severity: General disorders and administration site conditions, severity Mild” value [3] was 0 (0.0) n (%). The “TEAE by severity: Haemarthrosis” value [3] was 0 (0.0) n (%), the “TEAE by severity: Headache, severity Mild” value [3] was 0 (0.0) n (%) and the “TEAE by severity: Headache, severity Moderate” value [3] was 0 (0.0) n (%). For the same compound, the “TEAE by severity: Hypertension” value [3] was 0 (0.0) n (%), the “TEAE by severity: Musculoskeletal and connective tissue disorders, severity Mild” value [3] was 0 (0.0) n (%) and the “TEAE by severity: Musculoskeletal and connective tissue disorders, severity Moderate” value [3] was 1 (12.5) n (%). The “TEAE by severity: Nervous system disorders, severity Mild” value [3] was 0 (0.0) n (%), the “TEAE by severity: Nervous system disorders, severity Moderate” value [3] was 0 (0.0) n (%) and the “TEAE by severity: Pain in extremity” value [3] was 0 (0.0) n (%). The “TEAE by severity: Pancreatitis” value [3] was 1 (12.5) n (%), the “TEAE by severity: Pyrexia, severity Mild” value [3] was 0 (0.0) n (%) and the “TEAE by severity: Renal and urinary disorders, severity Mild” value [3] was 0 (0.0) n (%). For the same compound, the “TEAE by severity: Renal impairment” value [3] was 0 (0.0) n (%).
